Several values for one entry are separate records, joined by “and”; a condition that tells them apart may be missing. Equal values may be shown once. Where a name gives a salt, the structure may show the parent alone. Read-outs that look alike come from different tables or passages of the source.
Test: Ocular tissue concentrations (aqueous humor, vitreous humor, iris, retina, choroid, cornea) after topical ocular, subcutaneous and intravitreal administration
Assay type: in vivo, New Zealand White rabbits
Conditions: for Average Peak Concentration, Vitreous Humor: solution
Method: To measure the concentration of Compound 1 in plasma and ocular tissues following topical ocular, subcutaneous, and intravitreal administration, New Zealand White rabbits were administered Compound 1, and plasma and ocular samples were collected at pre-determined time points. Compound 1 formulations were prepared fresh on each day of dosing.
Ocular tissue samples from both eyes of each animal were collected and weights were recorded. Plasma and ocular tissue sample concentrations of Compound 1 were determined by LC-MS/MS.
New Zealand White rabbits weighing 2.5 to 3.5 kg were used on this study. Rabbits were housed one per cage. Animals were not fasted and only healthy animals with no ocular illness were used. Two rabbits per group were sacrificed at each of four ocular tissue sampling time points for a total of eight rabbits per group.
Animals were anesthetized for ocular (topical) and intravitreal dosing following the 12IA7 IACUC protocol. Each rabbit received a bolus dose of test formulation either via topical ocular administration 3 times daily on Days 1 and 2 (at 0, 6, and 12 hours), and once on Day 3 (at 0 hours) into both eyes; via intravitreal administration into both eyes once on Day 1 (at 0 hours); or via subcutaneous administration 2 times daily on Days 1 and 2 (at 0 and 8 hours) and once daily on Day 3 (at 0 hours). Doses were given within an approximately 1 hour window each day where applicable.
On Day 1, for intravitreal administration, or on Day 3, for topical ocular and subcutaneous administration, at the appropriate ocular tissue collection time points, animals were euthanized and both eyes were enucleated immediately. Following enucleation, each eye was rinsed with phosphate-buffered saline. Ocular tissue samples from both eyes of each animal were collected at predetermined time points and weights were recorded. All the samples were frozen immediately on dry ice, and stored at −60° C. to −80° C. pending bioanalysis.
An LC-MS/MS method was developed for the determination of Compound 1 in rabbit aqueous tissues (plasma, aqueous and vitreous humor) and solid ocular tissue samples. A pre-study standard curve was analyzed to determine the specificity, range, and lower limit of quantitation of the method. Plasma and tissue homogenate study samples were extracted and analyzed. All the samples were treated identically to the standards.
One eight-point standard curve was used in each analytical batch. To be accepted, each batch must have had at least five of eight standards with accuracy within ±20% of nominal, except at the lower limit of quantification (LLOQ), where ±25% was acceptable.
Concentration versus time data is plotted in FIGS. 3-16. All data are expressed as ng/g of the free drug. Samples that were below the limit of quantitation (0.2 ng/mL) were not used in the calculation of averages.

[1] = Group 1 topical ocular 1.2 mg/eye, 2.0 hr
[2] = Group 1 topical ocular 1.2 mg/eye, 4.0 hr
[3] = Group 2 subcutaneous 5 mg/kg, 0.5 hr
[4] = Group 2 subcutaneous 5 mg/kg, 1.0 hr
[5] = Group 2 subcutaneous 5 mg/kg, 2.0 hr
[6] = Group 2 subcutaneous 5 mg/kg, 4.0 hr
[7] = Group 4 intravitreal 2.5 mg per eye, 6.0 hr
[8] = Group 4 intravitreal 2.5 mg per eye, 24 hr
[9] = Group 4 intravitreal 2.5 mg per eye, 48 hr
[10] = Group 4 intravitreal 2.5 mg per eye, 72 hr

## COC(=O)N[C@@H](Cc1ccccc1)C(=O)N[C@@H](Cc1ccc(NS(=O)(=O)O)cc1)c1csc(-c2cccs2)n1 [Compound 1 sodium salt]
Group 1 topical ocular 0.70 mg/kg/dose
  Average Peak Concentration, Vitreous Humor: 0.61 ng/g
Group 1 topical ocular 1.2 mg/eye, 0.5 hr
  aqueous humor Conc., individual eyes (OD, OS): 3.44 ng/mL and 1.78 ng/mL and 12.8 ng/mL
Group 1 topical ocular 1.2 mg/eye, 1.0 hr
  aqueous humor Conc., individual eyes (OD, OS): 3.55 ng/mL and 3.05 ng/mL
[1]
  aqueous humor Conc., individual eyes (OD, OS): 2.46 ng/mL and 14.5 ng/mL and 15.8 ng/mL
  vitreous humor Conc., individual eyes (OD, OS): 1.14 ng/mL and 0.950 ng/mL
[2]
  aqueous humor Conc., individual eyes (OD, OS): 5.48 ng/mL and 5.61 ng/mL and 7.78 ng/mL and 14.1 ng/mL
  vitreous humor Conc., individual eyes (OD, OS): 1.09 ng/mL and 2.20 ng/mL and 0.551 ng/mL
Group 2 subcutaneous 5 mg/kg/dose
  Average Peak Concentration, Vitreous Humor: 0.83 ng/g
[3]
  aqueous humor Conc., individual eyes (OD, OS): 23.5 ng/mL and 24.6 ng/mL and 18.0 ng/mL and 38.2 ng/mL
  vitreous humor Conc., individual eyes (OD, OS): 1.03 ng/mL and 0.537 ng/mL and 0.981 ng/mL
[4]
  aqueous humor Conc., individual eyes (OD, OS): 4.51 ng/mL and 1.84 ng/mL and 3.22 ng/mL and 3.63 ng/mL
  vitreous humor Conc., individual eyes (OD, OS): 0.252 ng/mL and 0.766 ng/mL and 0.442 ng/mL and 0.337 ng/mL
[5]
  aqueous humor Conc., individual eyes (OD, OS): 0.498 ng/mL and 0.453 ng/mL
  vitreous humor Conc., individual eyes (OD, OS): BLOQ (Below the limit of quantitation (0.2 ng/mL))
[6]
  aqueous humor Conc., individual eyes (OD, OS): BLOQ (Below the limit of quantitation (0.2 ng/mL))
  vitreous humor Conc., individual eyes (OD, OS): BLOQ (Below the limit of quantitation (0.2 ng/mL))
[7]
  aqueous humor Conc., individual eyes (OD, OS): 77100 ng/mL and 75300 ng/mL and 79300 ng/mL
  vitreous humor Conc., individual eyes (OD, OS): 1450000 ng/mL and 1480000 ng/mL and 432000 ng/mL
[8]
  aqueous humor Conc., individual eyes (OD, OS): 5190 ng/mL and 6810 ng/mL
  vitreous humor Conc., individual eyes (OD, OS): 295000 ng/mL and 406000 ng/mL and 259000 ng/mL
[9]
  aqueous humor Conc., individual eyes (OD, OS): 1510 ng/mL and 2330 ng/mL and 1970 ng/mL
  vitreous humor Conc., individual eyes (OD, OS): 82300 ng/mL and 68600 ng/mL and 91900 ng/mL
[10]
  aqueous humor Conc., individual eyes (OD, OS): 23.2 ng/mL and 16.1 ng/mL and 49.7 ng/mL and 49.0 ng/mL
  vitreous humor Conc., individual eyes (OD, OS): 13500 ng/mL and 11700 ng/mL and 14100 ng/mL
New Zealand White, rabbit, aqueous humor, other: intravitreal, 2.5 mg per eye, Group 4 intravitreal 2.5 mg per eye, 6.0 hr, read-out: aqueous humor Average Conc.
  concentration at 6 hr: 80600 ng/g
New Zealand White, rabbit, aqueous humor, other: intravitreal, 2.5 mg per eye, Group 4 intravitreal 2.5 mg per eye, 6.0 hr, read-out: aqueous humor Conc., individual eyes (OD, OS)
  concentration at 6 hr: 90.6 µg/mL
New Zealand White, rabbit, aqueous humor, other: intravitreal, 2.5 mg per eye, Group 4 intravitreal 2.5 mg per eye, 24 hr, read-out: aqueous humor Average Conc.
  concentration at 24 hr: 9000 ng/g
New Zealand White, rabbit, aqueous humor, other: intravitreal, 2.5 mg per eye, Group 4 intravitreal 2.5 mg per eye, 24 hr, read-out: aqueous humor Conc., individual eyes (OD, OS)
  concentration at 24 hr: 4700 ng/mL
New Zealand White, rabbit, aqueous humor, other: intravitreal, 2.5 mg per eye, Group 4 intravitreal 2.5 mg per eye, 48 hr, read-out: aqueous humor Average Conc.
  concentration at 48 hr: 1960 ng/g
New Zealand White, rabbit, aqueous humor, other: intravitreal, 2.5 mg per eye, Group 4 intravitreal 2.5 mg per eye, 48 hr, read-out: aqueous humor Conc., individual eyes (OD, OS)
  concentration at 48 hr: 2040 ng/mL
New Zealand White, rabbit, aqueous humor, other: intravitreal, 2.5 mg per eye, Group 4 intravitreal 2.5 mg per eye, 72 hr, read-out: aqueous humor Average Conc.
  concentration at 72 hr: 34.5 ng/g
New Zealand White, rabbit, aqueous humor, subcutaneous, 5 mg/kg, Group 2 subcutaneous 5 mg/kg, 0.5 hr, read-out: aqueous humor Average Conc.
  concentration at 0.5 h: 26.1 ng/g
New Zealand White, rabbit, aqueous humor, subcutaneous, 5 mg/kg, Group 2 subcutaneous 5 mg/kg, 1.0 hr, read-out: aqueous humor Average Conc.
  concentration at 1 h: 3.3 ng/g
New Zealand White, rabbit, aqueous humor, subcutaneous, 5 mg/kg, Group 2 subcutaneous 5 mg/kg, 2.0 hr, read-out: aqueous humor Average Conc.
  concentration at 2 h: 0.72 ng/g
New Zealand White, rabbit, aqueous humor, subcutaneous, 5 mg/kg, Group 2 subcutaneous 5 mg/kg, 2.0 hr, read-out: aqueous humor Conc., individual eyes (OD, OS)
  concentration at 2 h: 0.581 ng/mL
New Zealand White, rabbit, aqueous humor, topical, 1.2 mg/eye, Group 1 topical ocular 1.2 mg/eye, 0.5 hr, read-out: aqueous humor Average Conc.
  concentration at 0.5 hr: 45.8 ng/g
New Zealand White, rabbit, aqueous humor, topical, 1.2 mg/eye, Group 1 topical ocular 1.2 mg/eye, 1.0 hr, read-out: aqueous humor Average Conc.
  concentration at 1 hr: 15 ng/g
New Zealand White, rabbit, aqueous humor, topical, 1.2 mg/eye, Group 1 topical ocular 1.2 mg/eye, 1.0 hr, read-out: aqueous humor Conc., individual eyes (OD, OS)
  concentration at 1 hr: 4.03 ng/mL
New Zealand White, rabbit, aqueous humor, topical, 1.2 mg/eye, Group 1 topical ocular 1.2 mg/eye, 2.0 hr, read-out: aqueous humor Average Conc.
  concentration at 2 h: 31.6 ng/g
